According to US8710224B2, “Heterocyclic compounds as CCR2B antagonists” (AstraZeneca AB, priority 2004, dated 2014):

These compounds were tested against T1, recombinant human CCR5 receptor (Homo sapiens, UniProt P51681) (assay: Radioligand binding assay for inhibition of the binding of MIP-1α). Settings: displacement of 0.1 nM iodinated MIP-1α; membranes of Chinese hamster ovary cells expressing CCR5.
T1 construct: expressed in transfected cells; host or cells: Chinese hamster ovary (CHO) cells; membranes
T1 sequence (P51681 whole entry): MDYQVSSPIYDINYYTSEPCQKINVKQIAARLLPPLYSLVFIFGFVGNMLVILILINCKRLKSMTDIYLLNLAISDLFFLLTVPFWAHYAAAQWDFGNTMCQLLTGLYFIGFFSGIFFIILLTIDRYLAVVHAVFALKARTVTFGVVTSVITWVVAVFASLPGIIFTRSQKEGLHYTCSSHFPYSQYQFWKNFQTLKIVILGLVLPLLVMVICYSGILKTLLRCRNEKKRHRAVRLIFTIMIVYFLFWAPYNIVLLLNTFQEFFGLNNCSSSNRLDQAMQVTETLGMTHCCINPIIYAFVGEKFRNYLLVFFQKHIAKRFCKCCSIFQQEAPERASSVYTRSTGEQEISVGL
Procedure: Biological Assay for the Ability of Compounds to Inhibit the Binding of MIP-1α This ability is assessed using an in vitro radioligand binding assay. Membranes are prepared from Chinese hamster ovary cells which express the recombinant human CCR5 receptor. These membranes are incubated with 0.1 nM iodinated MIP-1α, scintillation proximity beads and various concentrations of the compounds of the invention in 96-well plates. The amount of iodinated MIP-1α bound to the receptor is then determined by scintillation counting.

IC50 | SMILES
< 10 µM | CC(C)N1CCN[C@@H](C(=O)N2CCN(C(=O)Nc3ccc(F)c(Cl)c3)CC2)C1 [Example 216]
< 10 µM | CCC(C)N1CCN[C@@H](C(=O)N2CCN(C(=O)Nc3ccc(Cl)c(Cl)c3)CC2)C1 (stereo partly drawn) [Example 220, 4-{[(2R)-4-sec-butylpiperazin-2-yl]carbonyl}-N-(3,4-dichlorophenyl)piperazine-1-carboxamide]
< 10 µM | O=C(Nc1ccc(Cl)c(Cl)c1)N1CCN(C[C@H]2CCN([C@H]3CC[C@](O)(c4cccnc4)CC3)C2)CC1 [Example 228, N-(3,4-dichlorophenyl)-4-{[(3R)-1-(cis-4-hydroxy-4-pyridin-3-ylcyclohexyl)pyrrolidin-3-yl]methyl}piperazine-1-carboxamide]
< 10 µM | O=C(Nc1ccc(Cl)c(Cl)c1)N1CCN(C[C@@H]2CCN([C@H]3CC[C@](O)(c4nccs4)CC3)C2)CC1 [Example 229, N-(3,4-dichlorophenyl)-4-({(3S)-1-[cis-4-hydroxy-4-(1,3-thiazol-2-yl)cyclohexyl]pyrrolidin-3-yl}methyl)piperazine-1-carboxamide]
< 10 µM | CC(C)N1CC[C@@H](CN2CCN(C(=O)Nc3ccc(Cl)c(Cl)c3)CC2)C1 [Example 231, N-(3,4-dichlorophenyl)-4-{[(3S)-1-isopropylpyrrolidin-3-yl]methyl}piperazine-1-carboxamide]
< 10 µM | O=C(Nc1ccc(Cl)c(Cl)c1)N1CCN(C[C@H]2CCN([C@H]3CC[C@H](O)CC3)C2)CC1 [Example 232, N-(3,4-dichlorophenyl)-4-{[(3R)-1-(trans-4-hydroxycyclohexyl)pyrrolidin-3-yl]methyl}piperazine-1-carboxamide]
< 10 µM | C[C@@H](CC(C)(C)O)N1CCO[C@@H](CN2CCN(C(=O)Nc3ccc(F)c(Cl)c3)CC2)C1 [Example 235, N-(3-chloro-4-fluorophenyl)-4-({(2S)-4-[(1S)-3-hydroxy-1,3-dimethylbutyl]morpholin-2-yl}methyl)piperazine-1-carboxamide]
< 10 µM | O=C(Nc1ccccc1)N1CCN(C[C@@H]2CCCN(CCc3ccc(Cl)c(Cl)c3)C2)CC1 [Example 253, 4-[[(3R)-1-[2-(3,4-dichlorophenyl)ethyl]-3-piperidyl]methyl]-N-phenyl piperazine-1-carboxamide]
< 10 µM | O=C(Nc1ccc(Cl)c(Cl)c1)N1CCN(C[C@@H]2CCCN(Cc3ccc(Cl)nc3)C2)CC1 [Example 256, 4-({(3R)-1-[(6-chloropyridin-3-yl)methyl]piperidin-3-yl}methyl)-N-(3,4-dichlorophenyl)piperazine-1-carboxamide]

Further lines, the compound ahead of its results:

SMILES | IC50
CC(C)N1CCN[C@@H](C(=O)N2CCN(C(=O)Nc3ccc(Cl)c(C(F)(F)F)c3)CC2)C1 [Example 213, N-[4-chloro-3-(trifluoromethyl)phenyl]-4-{[(2R)-4-isopropylpiperazin-2-yl]carbonyl}piperazine-1-carboxamide] | < 10 µM
CC(C)N1CCN[C@@H](C(=O)N2CCN(C(=O)Nc3cccc(C(F)(F)F)c3)CC2)C1 [Example 214, 4-{[(2R)-4-isopropylpiperazin-2-yl]carbonyl}-N-[3-(trifluoromethyl)phenyl]piperazine-1-carboxamide] | < 10 µM
CC(C)N1CCN[C@@H](C(=O)N2CCN(C(=O)Nc3ccc(Cl)cc3)CC2)C1 [Example 215, N-(4-chlorophenyl)-4-{[(2R)-4-isopropylpiperazin-2-yl]carbonyl}piperazine-1-carboxamide] | < 10 µM
Cc1ccc(NC(=O)N2CCN(C(=O)[C@H]3CN(C(C)C)CCN3)CC2)cc1F [Example 218, N-(3-fluoro-4-methylphenyl)-4-{[(2R)-4-isopropylpiperazin-2-yl]carbonyl}piperazine-1-carboxamide] | < 10 µM
O=C(Nc1ccc(Cl)c(Cl)c1)N1CCN(C(=O)[C@H]2CN(C3CCOCC3)CCN2)CC1 [Example 221, N-(3,4-dichlorophenyl)-4-{[(2R)-4-(tetrahydro-2H-pyran-4-yl)piperazin-2-yl]carbonyl}piperazine-1-carboxamide] | < 10 µM
C[C@@H](Cc1ccc(F)cc1)N1CCO[C@@H](CN2CCN(C(=O)Nc3ccc(F)c(Cl)c3)CC2)C1 [Example 233, N-(3-chloro-4-fluorophenyl)-4-({(2S)-4-[(1S)-2-(4-fluorophenyl)-1-methylethyl]morpholin-2-yl}methyl)piperazine-1-carboxamide] | < 10 µM
C[C@H](CC1CCCC1)N1CCO[C@@H](CN2CCN(C(=O)Nc3ccc(F)c(Cl)c3)CC2)C1 [Example 234, N-(3-chloro-4-fluorophenyl)-4-({(2S)-4-[(1R)-2-cyclopentyl-1-methylethyl]morpholin-2-yl}methyl)piperazine-1-carboxamide] | < 10 µM
O=C(Nc1ccccc1)N1CCN(C[C@@H]2CCCN(CCCc3ccccc3)C2)CC1 [Example 245, N-phenyl-4-[[(3R)-1-(3-phenylpropyl)-3-piperidyl]methyl]piperazine-1-carboxamide] | < 10 µM
COc1ccc(CN2CCC[C@@H](CN3CCN(C(=O)Nc4ccccc4)CC3)C2)cn1 [Example 247, 4-({(3R)-1-[(6-methoxypyridin-3-yl)methyl]piperidin-3-yl}methyl)-N-phenyl piperazine-1-carboxamide] | < 10 µM
O=C(Nc1ccccc1)N1CCN(C[C@@H]2CCCN(CCc3ccc(F)cc3)C2)CC1 [Example 248, 4-[[(3R)-1-[2-(4-fluorophenyl)ethyl]-3-piperidyl]methyl]-N-phenyl-piperazine-1-carboxamide] | < 10 µM
O=C(Nc1ccccc1)N1CCN(C[C@@H]2CCCN(CCc3ccc(Cl)cc3)C2)CC1 [Example 249, 4-[[(3R)-1-[2-(4-chlorophenyl)ethyl]-3-piperidyl]methyl]-N-phenyl-piperazine-1-carboxamide] | < 10 µM
COc1ccc(CCN2CCC[C@@H](CN3CCN(C(=O)Nc4ccccc4)CC3)C2)cc1 [Example 250, 4-[[(3R)-1-[2-(4-methoxyphenyl)ethyl]-3-piperidyl]methyl]-N-phenyl-piperazine-1-carboxamide] | < 10 µM
O=C(Nc1ccccc1)N1CCN(C[C@@H]2CCCN(CCc3ccc(F)cc3Cl)C2)CC1 [Example 251, 4-[[(3R)-1-[2-(2-chloro-4-fluoro-phenyl)ethyl]-3-piperidyl]methyl]-N-phenyl-piperazine-1-carboxamide] | < 10 µM
O=C(Nc1ccccc1)N1CCN(C[C@@H]2CCCN(CCc3c(Cl)cccc3Cl)C2)CC1 [Example 252, 4-[[(3R)-1-[2-(2,6-dichlorophenyl)ethyl]-3-piperidyl]methyl]-N-phenyl-piperazine-1-carboxamide] | < 10 µM
CS(=O)(=O)c1ccc(CCCN2CCC[C@@H](CN3CCN(C(=O)Nc4ccccc4)CC3)C2)cc1 [Example 254, 4-[[(3R)-1-[3-(4-methylsulfonylphenyl)propyl]-3-piperidyl]methyl]-N-phenyl-piperazine-1-carboxamide] | < 10 µM
O=C(Nc1ccc(Cl)c(Cl)c1)N1CCN(C[C@@H]2CCCN(Cc3ccc(N4CCOCC4)nc3)C2)CC1 [Example 255, N-(3,4-dichlorophenyl)-4-[[(3R)-1-[(6-morpholin-4-ylpyridin-3-yl)methyl]-3-piperidyl]methyl]piperazine-1-carboxamide] | < 10 µM
